Results from US9707305B2, “Formulas for diagnosing and treating hormone-dependent cancers and cancers of the organs responsible for steroid hormone synthesis” (Commissariat à l'énergie atomique et aux énergies …, priority 2011, dated 2017).

Key:
[1] = Biodistribution of the mixture of three free tracers (not formulated as nano-emulsion), comparative; type: in vivo; conditions: FVB female mouse
Protocol: (§1) In the following examples, the radioactivity was counted with the TRiCarb Counter (Ref: Packard, Liquid Scintillation Analyzers; Models 2200CA).
Fluobeam 700 (Fluoptics) is the apparatus with which the whole of the organs from the biodistribution were analyzed in fluorescence as well as the one with which the biodistribution kinetics of the nano-emulsions were established in vivo. This imaging system allows viewing of the fluorescence in spectral bands from 700 to 850 nm for a 650 nm excitation. The apparatus consists of an electric case containing the laser of class 3B, its power supply and an optical head containing the CCD camera.
As a comparison, a mixture of three tracers ([3H]CHE, [14C]CO and DiD) (not formulated as a nano-emulsion) was injected in order to observe the distribution of the tracers in the absence of droplets being used as a distribution carrier.

[2] = Biodistribution of the nano-emulsion of Example 1.1 in male mice (Tables 15 to 21); type: in vivo; conditions: FVB male mouse
Protocol: as §1
Fluobeam 700 (Fluoptics) is the apparatus with which the whole of the organs from the biodistribution were analyzed in fluorescence as well as the one with which the biodistribution kinetics of the nano-emulsions were established in vivo. This imaging system allows viewing of the fluorescence in spectral bands from 700 to 850 nm for a 650 nm excitation. The apparatus consists of an electric case containing the laser of class 3B, its power supply and an optical head containing the CCD camera. […]

[3] = 2 h after injection of free tracers (not nano-emulsion)
[4] = 6 h after injection of free tracers (not nano-emulsion)
[5] = 16 h after injection of free tracers (not nano-emulsion)
[6] = 24 h after injection of free tracers (not nano-emulsion)

Compound: CCCCCCCCCCCCCCCCO[C@H]1CC[C@@]2(C)C(=CC[C@H]3[C@@H]4CC[C@H]([C@H](C)CCCC(C)C)[C@@]4(C)CC[C@@H]32)C1 [[3H]CHE, cholesteryl hexadecylether]
- biodistribution, Adrenal glands (MEAN) [1, 3]: 0.17 % of injected dose per gram of
- biodistribution, Brain (MEAN) [1, 3]: 0.00 % of injected dose per gram of
- biodistribution, Fat (MEAN) [1, 3]: 0.02 % of injected dose per gram of
- biodistribution, Heart (MEAN) [1, 3]: 0.08 % of injected dose per gram of
- biodistribution, Intestine (MEAN) [1, 3]: 0.03 % of injected dose per gram of
- biodistribution, Kidney (MEAN) [1, 3]: 0.09 % of injected dose per gram of
- biodistribution, Liver (MEAN) [1, 3]: 1.76 % of injected dose per gram of
- biodistribution, Lung (MEAN) [1, 3]: 29.10 % of injected dose per gram of
- biodistribution, Muscle (MEAN) [1, 3]: 0.04 % of injected dose per gram of
- biodistribution, Ovary (MEAN) [1, 3]: 0.04 % of injected dose per gram of
- biodistribution, Pancreas (MEAN) [1, 3]: 0.05 % of injected dose per gram of
- biodistribution, Salivary gland (MEAN) [1, 3]: 0.01 % of injected dose per gram of
- biodistribution, Spleen (MEAN) [1, 3]: 1.55 % of injected dose per gram of
- biodistribution, Uterus (MEAN) [1, 3]: 0.02 % of injected dose per gram of
- biodistribution, Adrenal glands (MEAN) [1, 4]: 0.36 % of injected dose per gram of
- biodistribution, Brain (MEAN) [1, 4]: 0.02 % of injected dose per gram of
- biodistribution, Fat (MEAN) [1, 4]: 0.05 % of injected dose per gram of
- biodistribution, Heart (MEAN) [1, 4]: 0.30 % of injected dose per gram of
- biodistribution, Intestine (MEAN) [1, 4]: 0.15 % of injected dose per gram of
- biodistribution, Kidney (MEAN) [1, 4]: 0.41 % of injected dose per gram of
- biodistribution, Liver (MEAN) [1, 4]: 3.23 % of injected dose per gram of
- biodistribution, Lung (MEAN) [1, 4]: 83.99 % of injected dose per gram of
- biodistribution, Muscle (MEAN) [1, 4]: 0.03 % of injected dose per gram of
- biodistribution, Ovary (MEAN) [1, 4]: 0.07 % of injected dose per gram of
- biodistribution, Pancreas (MEAN) [1, 4]: 0.09 % of injected dose per gram of
- biodistribution, Salivary gland (MEAN) [1, 4]: 0.09 % of injected dose per gram of
- biodistribution, Uterus (MEAN) [1, 4]: 0.04 % of injected dose per gram of
- biodistribution, Adrenal gland (MEAN) [1, 5]: 0.47 % of injected dose per gram of
- biodistribution, Brain (MEAN) [1, 5]: 0.02 % of injected dose per gram of
- biodistribution, Fat (MEAN) [1, 5]: 0.02 % of injected dose per gram of
- biodistribution, Heart (MEAN) [1, 5]: 0.35 % of injected dose per gram of
- biodistribution, Intestine (MEAN) [1, 5]: 0.13 % of injected dose per gram of
- biodistribution, Kidney (MEAN) [1, 5]: 0.53 % of injected dose per gram of
- biodistribution, Liver (MEAN) [1, 5]: 6.95 % of injected dose per gram of
- biodistribution, Lung (MEAN) [1, 5]: 124.35 % of injected dose per gram of
- biodistribution, Muscle (MEAN) [1, 5]: 0.05 % of injected dose per gram of
- biodistribution, Ovary (MEAN) [1, 5]: 0.19 % of injected dose per gram of
- biodistribution, Pancreas (MEAN) [1, 5]: 0.04 % of injected dose per gram of
- biodistribution, Salivary gland (MEAN) [1, 5]: 0.05 % of injected dose per gram of
- biodistribution, Spleen (MEAN) [1, 5]: 4.17 % of injected dose per gram of
- biodistribution, Uterus (MEAN) [1, 5]: 0.03 % of injected dose per gram of
- biodistribution, Adrenal gland (MEAN) [1, 6]: 0.31 % of injected dose per gram of
- biodistribution, Brain (MEAN) [1, 6]: 0.03 % of injected dose per gram of
- biodistribution, Fat (MEAN) [1, 6]: 1.42 % of injected dose per gram of
- biodistribution, Heart (MEAN) [1, 6]: 0.12 % of injected dose per gram of
- biodistribution, Intestine (MEAN) [1, 6]: 0.07 % of injected dose per gram of
- biodistribution, Kidney (MEAN) [1, 6]: 1.12 % of injected dose per gram of
- biodistribution, Liver (MEAN) [1, 6]: 1.12 % of injected dose per gram of
- biodistribution, Lung (MEAN) [1, 6]: 6.37 % of injected dose per gram of
- biodistribution, Muscle (MEAN) [1, 6]: 0.11 % of injected dose per gram of
- biodistribution, Ovary (MEAN) [1, 6]: 0.08 % of injected dose per gram of
- biodistribution, Pancreas (MEAN) [1, 6]: 0.03 % of injected dose per gram of
- biodistribution, Salivary gland (MEAN) [1, 6]: 0.14 % of injected dose per gram of
- biodistribution, Spleen (MEAN) [1, 6]: 10.63 % of injected dose per gram of
- biodistribution, Uterus (MEAN) [1, 6]: 0.34 % of injected dose per gram of
- accumulation of the free radioactive tracers in the lungs ([1]; Tables 2 to 5 (2 to 24 h), free tracers): strong accumulation
- tracer in Adrenal gland ([2]; 2 h): 10.16 percentage of the dose injected per gram of tissue
- tracer in Adrenal gland ([2]; 4 h): 16.96 percentage of the dose injected per gram of tissue
- tracer in Adrenal gland ([2]; 6 h): 13.399 percentage of the dose injected per gram of tissue
- tracer in Adrenal gland ([2]; 16 h): 32.89 percentage of the dose injected per gram of tissue
- tracer in Adrenal gland ([2]; 24 h): 17.41 percentage of the dose injected per gram of tissue
- tracer in Adrenal gland ([2]; 48 h): 25.12 percentage of the dose injected per gram of tissue
- tracer in Adrenal gland ([2]; 72 h): 46.41 percentage of the dose injected per gram of tissue
- tracer in Brain ([2]; 2 h): 0.35 percentage of the dose injected per gram of tissue
- tracer in Brain ([2]; 4 h): 0.23 percentage of the dose injected per gram of tissue
- tracer in Brain ([2]; 6 h): 0.24 percentage of the dose injected per gram of tissue
- tracer in Brain ([2]; 16 h): 0.18 percentage of the dose injected per gram of tissue
- tracer in Brain ([2]; 24 h): 0.11 percentage of the dose injected per gram of tissue
- tracer in Brain ([2]; 48 h): 0.10 percentage of the dose injected per gram of tissue
- tracer in Brain ([2]; 72 h): 0.11 percentage of the dose injected per gram of tissue
- tracer in Fat ([2]; 2 h): 1.14 percentage of the dose injected per gram of tissue
- tracer in Fat ([2]; 4 h): 0.74 percentage of the dose injected per gram of tissue
- tracer in Fat ([2]; 6 h): 1.234 percentage of the dose injected per gram of tissue
- tracer in Fat ([2]; 16 h): 1.70 percentage of the dose injected per gram of tissue
- tracer in Fat ([2]; 24 h): 0.83 percentage of the dose injected per gram of tissue
- tracer in Fat ([2]; 48 h): 0.94 percentage of the dose injected per gram of tissue
- tracer in Fat ([2]; 72 h): 0.70 percentage of the dose injected per gram of tissue
